Reference: US20110207655A1, “CYCLIC DEPSIPEPTIDE COMPOUND AND USE THEREOF” (Astellas Pharma Inc., priority 2008, published 2011)
Starred links: 1 amine or outer side, 2 acyl side, 3 side chain; linkers in the order of their positions; H or OH if unused. Positions of bridges follow the written chain, without caps; N, C: chain ends. Non-standard residues stand in square brackets, D forms with d. Residues, ends and D or L forms follow the SMILES beside them. Leu(3R-O(AcLeu(3R-OH))) = CC(=O)N[C@H](C(=O)O[C@H](C(C)C)[C@H](N)C(=O)O)[C@H](O)C(C)C; X1 = CO[C@H](C)C(C(=O)[*:2])N(C)[*:1]; dPhLac = O=C(O)[C@H](O)Cc1ccccc1; NMeA = CN[C@@H](C)C(=O)O; NMeDha = C=C(NC)C(=O)O

Assays:
[1] = tested on: carotid artery pressure; experiment: Action on the carotid pressure by intratracheal administration; assay type: in vivo, SD male rats; conditions: rats
Experimental: SD male rats (Charles River Laboratories Japan, Inc.) were used in experiments. Urethane (1.2 g/kg) was administered intraperitoneally to the rats for anesthesia. Cannulation for […] was carried out in the carotid artery and a pressure transducer (TP-400T, Nihon Kohden Corporation) was connected. The cannula for measuring blood pressure and a pressure transducer were filled with 5% heparin physiological saline. The pressure signal was amplified with a strain pressure amplifier (AP-601G, Nihon Kohden Corporation) and recorded on chart paper by a thermal pen recorder (WT-685G, Nihon Kohden Corporation). The body temperature of the rats was maintained at 37° C. using a body temperature-maintaining device (BWT-100, Bio Research Center). The trachea was exposed, and using needles (27 G), the test compounds (30 or 100 μg/kg) at a volume of 0.5 mL/kg or physiological saline was administered by direct intratracheal injection. For the group administered with 30 μg/kg, 5 animals were used, for the group administered with 100 μg/kg, 1 animal was used, and for the group administered with physiological saline, 3 animals were used. For 30 minutes after intratracheal administration, a mean blood pressure was measured.

[2] = tested on: human platelet aggregation caused by ADP; conditions: Patent Citation 1, Non-Patent Citation 1; cited from earlier work
[3] = tested on: Gq and G11; conditions: Non-Patent Citation 3; cited from earlier work
[4] = tested on: methacholine-induced airway contraction; experiment: Inhibitory action of intratracheal administration on the methacholine-induced airway contraction; assay type: in vivo, SD male rats; conditions: rats; for airway contraction inhibitory rate: 1 hour before methacholine 30 μg/kg i.v., vs saline group
Experimental: SD male rats (Charles River Laboratories Japan, Inc.) were used in experiments. Urethane (1.2 g/kg) was administered intraperitoneally to the rats for anesthesia. Using a metal canula for intratracheal administration, test compounds (0.3, 1, and 3 μg/kg) or physiological saline was administered intratracheally (3 or 4 animals) at a volume of 0.5 mL/kg. Cannulation for intravenous administration was carried out in the external jugular vein of the rats. A tracheostomy cannula was inserted through an incision in the trachea and mechanical ventilation (10 mL/kg, 90 times/min) was carried out using a Breathing Analysis Computer System (flexiVent, SCIREQ Inc.). The mechanical ventilator circuit was connected with a pressure transducer (TP-400T, Nihon Kohden Corporation) and the change in airway pressure was measured. The airway pressure signal was amplified with a strain pressure amplifier (AP-601G, Nihon Kohden Corporation) and recorded on chart paper by a thermal pen recorder (WT-685G, Nihon Kohden Corporation, or LINEARCORDER F WR3701, Graphtec). The body temperature of the rats was maintained at 37° C. using a body temperature-maintaining device (BWT-100, Bio Research
Center). At 1 hour after intratracheal administration of the test compound, a solution of acetyl-β-methacholine chloride in physiological saline (30 μg/kg, acetylcholine β-methacholine chloride=manufactured by SIGMA Co.) was administered intravenously to induce the airway contraction response. The airway contraction inhibitory rate of the test compound was calculated by comparing the airway pressure increase rate (%) with one obtained by intratracheal administration of physiological saline, and ED50 values were determined.

[5] = intratracheal 100 μg/kg, 1 animal

C=C1C(=O)N[C@@H](C)C(=O)N(C)[C@@H](C)C(=O)N[C@@H]([C@H](OC(=O)[C@@H](NC(C)=O)[C@H](O)C(C)C)C(C)C)C(=O)N(C)C([C@@H](C)OC)C(=O)O[C@H](C)[C@H](NC(C)=O)C(=O)O[C@H](Cc2ccccc2)C(=O)N1C (stereo partly drawn) [Ref 1] (Ac-T[dPhLac][NMeDha]A[NMeA][Leu(3R-O(AcLeu(3R-OH)))][X1]; ester 1-C)
amount having no action on the carotid artery pressure ([1]; intratracheal): at least 30 μg/kg
Reduction in blood pressure After 10 min ([1]; intratracheal 30 μg/kg): 7±5.2 mmHg
Reduction in blood pressure Max in 30 min ([1]; intratracheal 30 μg/kg): 22±3.3 mmHg
reduction in blood pressure compared with physiological saline group ([1]; intratracheal 30 μg/kg): no significant difference
reduction in blood pressure (in words) ([1]; intratracheal 100 μg/kg): remarkable reduction in blood pressure
Reduction in blood pressure After 10 min [1, 5]: 65 mmHg
Reduction in blood pressure Max in 30 min [1, 5]: 95 mmHg
gap between maximum amount having no action on carotid artery pressure and ED50 of inhibitory action on airway contraction ([1]; intratracheal, 30 μg/kg vs 0.73 μg/kg): at least 40 times
human platelet aggregation caused by ADP [2]: inhibits
inhibition of Gq and G11 [3]: strongly inhibits
ED50 ([4]; Rattus norvegicus, intratracheal, calculated from three points, read-out: ED50 value of inhibition of methacholine-induced airway contraction): 0.73 µg/kg
airway contraction inhibitory rate ([4]; intratracheal 0.3 μg/kg): 32%
airway contraction inhibitory rate ([4]; intratracheal 1 μg/kg): 45%
airway contraction inhibitory rate ([4]; intratracheal 3 μg/kg): 98%
